Test results: patent publication US20220184072A1 (priority 2019, published 2022)

Legend:
Type in all cases: in vivo
STZ-diabetic rats [1] = experiment: STZ-rat model, cold allodynia response
Procedure: (§1) The compound of Example 1 is also tested in an STZ-rat model of neuropathic pain. Briefly, adult female rats are made diabetic by treatment with streptozotocin (STZ), an alkylating neoplastic agent which is particularly toxic to the insulin-producing beta cells of the pancreas. The resulting type-I diabetes in the rats leads to the development of diabetic neuropathy over a 3 to 6-week period. […] Once diabetic neuropathy has been induced, the rats may be treated to determine the analgesic effect of compounds.
Paw cold response threshold is a clinical assessment of cold pain perception. A rigid filament with a thermoelectric cooling system is used to stimulate the plantar surface of the hind paw for 5 seconds. The stimulus is repeated ten times at 2 to 5-minute intervals. The number of paw withdrawal responses is recorded and converted to a response frequent figure (%). This procedure is repeated at a variety of temperatures. […] At a stimulus temperature of 20° C. or 15° C., the response frequency is found to be substantially the same between STZ-treated rats and control rats (from about 10-20% response). In contrast, at a stimulus temperature of 10° C. or below, there is a substantial divergence of frequency response. In control rats, a stimulus temperature of 10° C. results in about 10% response frequency, while at 5° C., this increases to about 40% response frequency. In contrast, STZ-treated rats show a response frequency of about 60% at 10° C., and about 80% at 5° C. […] A stable cold allodynia response is observed 4-12 weeks after induction of diabetes.
The cold allodynia response test is performed at 0 hours, 1 hour, 2 hours, 4 hours and 6 hours, as described above, using a 10° C. stimulus temperature. The injection vehicle is pure polyethylene glycol-400 (PEG400).

STZ-diabetic rats [2] = experiment: STZ-rat model, tactile stimuli (von Frey filaments)
Procedure: as §1
Paw tactile response threshold is a clinical assessment of allodynia to light touch. It can be measured using manual von Frey filaments (as described in Otto et al., Pain, 101:187-92 (2003). A series of von Frey filaments with logarithmically increasing stiffness are used, and the rats' response to each filament is observed. The results are used to calculate a 50%-withdrawal threshold (an amount of stiffness in the filament resulting in a 50% probability of withdrawal of the rat's paw).
This test is performed using the von Frey filaments as described above.

ZFD rats = experiment: ZFD rat model, electronic von Frey (paw pressure); design: unit not given here
Procedure: Forty (40) adult, male […] rats weighing 225-275 g at the start of the study are used in these experiments, including ten (10) lean, controls and thirty (30) ZFD rats. Animals are maintained in the vivarium at a controlled room temperature between 65 to 85° F. and a relative humidity between 30-70% under illumination by fluorescent lighting on a daily 12-hour light/dark cycle. All animals are maintained 2 per cage with free access to dry food and water.
Paw pressure response threshold: This test applies greater force to the plantar hind paw than manual von Frey filaments and may be equated to pressure-induced pain such as that described by diabetic subjects upon standing and walking. Hyperalgesia to this measure develops over several weeks in ZFD rats such that this test can give an assessment of hyperalgesia and drug efficacy that differs from the allodynia measured by manual von Frey filaments. The method is described in detail by Lee-Kubil, Mixcoati-Zecuatl, Jolivalt, & Calcutt, Animal Models of Diabetes-Induced Neuropathic Pain, CURRENT TOPICS IN BEHAVIORAL NEUROSCIENCES 20: 147-170 (2014).
Dosing procedures. Zucker Fatty Diabetic rats are found to develop hyperglycemia over 6-8 weeks. […] Upon confirmation of the presence of painful neuropathy, rats are tested for three measures of hyperalgesia: cold allodynia threshold, tactile hyperalgesia (von Frey filaments), and pressure responses measured by a mechanical von Frey device. All rats are tested in all three assays and all rats receive each of four (4) pre-treatments administered subcutaneously (s.c.) in a vehicle of 10% Trappsol in water. All rats receive treatments in the same order, as follows: vehicle, 1 mg/kg Compound of Ex. 1, 3 mg/kg Compound of Ex. 1, and 10 mg/kg Compound of Ex. 1. Rats receive pre-treatments 30 minutes prior to the start of testing. Hyperalgesia/allodynia measures are recorded from each rat at baseline (0 time), then 1, 2, 3, 4, and 6 h after treatment.
After the completion of testing of all rats at all dose/conditions for each assay (cold, tactile, and pressure responses) rats are out-fitted with cannulas for intrathecal (i.t.) application of vehicle or Compound of Ex. 1 (1, 3 or 10 μg) directly to spinal cord. All rats are then re-tested in each of the tree assays at each of the 4 pretreatment conditions/doses.

## O=C1CN2c3c(cccc3[C@@H]3CN(CCCOc4ccc(F)cc4)CC[C@@H]32)N1 [Example 1, (6bR,10aS)-8-(3-(4-fluorophenoxy)propyl)-6b,7,8,9,10,10a-hexahydro-1H-pyrido[3′,4′:4,5]pyrrolo[1,2,3-de]quinoxalin-2(3H)-one]
STZ-diabetic rats [1]; 1 mg/kg s.c., 1 hour
  cold response frequency: ~35%
STZ-diabetic rats [1]; 1 mg/kg s.c., 4 hours
  cold response frequency: about 70%
STZ-diabetic rats [1]; 1 mg/kg s.c., 6 hours
  cold response frequency: about 75%
STZ-diabetic rats [1]; 3 mg/kg s.c., 1 hour
  cold response frequency: about 10%
STZ-diabetic rats [1]; 3 mg/kg s.c., 4 hours
  cold response frequency: about 65%
STZ-diabetic rats [1]; 3 mg/kg s.c., 6 hours
  cold response frequency: 75%
STZ-diabetic rats [1]; 10 mg/kg s.c., 1 hour
  cold response frequency: about 15%
STZ-diabetic rats [1]; 10 mg/kg s.c., 2 hours
  cold response frequency: about 10%
STZ-diabetic rats [1]; 10 mg/kg s.c., 4 hours
  cold response frequency: about 20%
STZ-diabetic rats [1]; 10 mg/kg s.c., 6 hours
  cold response frequency: about 40%
STZ-diabetic rats [2]; STZ-diabetic rats, 1 mg/kg s.c., 4 hours (peak)
  50% withdrawal threshold: about 4 g
STZ-diabetic rats [2]; STZ-diabetic rats, 1 mg/kg s.c., 6 hours
  50% withdrawal threshold: about 3 g
STZ-diabetic rats [2]; STZ-diabetic rats, 3 mg/kg s.c., 1 hours
  50% withdrawal threshold: about 6 g
STZ-diabetic rats [2]; STZ-diabetic rats, 3 mg/kg s.c., 2 hours (peak)
  50% withdrawal threshold: ~8 g
STZ-diabetic rats [2]; STZ-diabetic rats, 3 mg/kg s.c., 4 hours
  50% withdrawal threshold: about 3 g
STZ-diabetic rats [2]; STZ-diabetic rats, 10 mg/kg s.c., 1 hour
  50% withdrawal threshold: about 9 g
STZ-diabetic rats [2]; STZ-diabetic rats, 10 mg/kg s.c., 2 hours (peak)
  50% withdrawal threshold: about 10 g
STZ-diabetic rats [2]; STZ-diabetic rats, 10 mg/kg s.c., 6 hours
  50% withdrawal threshold: about 3 g
STZ-diabetic rats [2]; rat, in vivo, sc, 10 mg/kg
  50% withdrawal threshold: about 7 g
ZFD rats; Control rats, 10 μg i.t., 0 hr
  Electronic von Frey (paw pressure response): 63.68
ZFD rats; Control rats, 10 μg i.t., 1 hr
  Electronic von Frey (paw pressure response): 60.91
ZFD rats; Control rats, 10 μg i.t., 2 hr
  Electronic von Frey (paw pressure response): 62.10
ZFD rats; Control rats, 10 μg i.t., 4 hr
  Electronic von Frey (paw pressure response): 59.56
ZFD rats; Control rats, 10 mg/kg s.c., 0 hr
  Electronic von Frey (paw pressure response): 58.64
ZFD rats; Control rats, 10 mg/kg s.c., 1 hr
  Electronic von Frey (paw pressure response): 55.73
ZFD rats; Control rats, 10 mg/kg s.c., 2 hr
  Electronic von Frey (paw pressure response): 60.74
ZFD rats; Control rats, 10 mg/kg s.c., 4 hr
  Electronic von Frey (paw pressure response): 62.89
ZFD rats; ZFD rats, 1 μg i.t., 0 hr
  Electronic von Frey (paw pressure response): 24.76
ZFD rats; ZFD rats, 1 μg i.t., 1 hr
  Electronic von Frey (paw pressure response): 34.77
ZFD rats; ZFD rats, 1 μg i.t., 2 hr
  Electronic von Frey (paw pressure response): 30.09
ZFD rats; ZFD rats, 1 μg i.t., 4 hr
  Electronic von Frey (paw pressure response): 28.19
ZFD rats; ZFD rats, 3 μg i.t., 0 hr
  Electronic von Frey (paw pressure response): 33.23
ZFD rats; ZFD rats, 3 μg i.t., 1 hr
  Electronic von Frey (paw pressure response): 53.94
ZFD rats; ZFD rats, 3 μg i.t., 2 hr
  Electronic von Frey (paw pressure response): 50.17
ZFD rats; ZFD rats, 3 μg i.t., 4 hr
  Electronic von Frey (paw pressure response): 39.95
ZFD rats; ZFD rats, 10 μg i.t., 0 hr
  Electronic von Frey (paw pressure response): 24.68
ZFD rats; ZFD rats, 10 μg i.t., 1 hr
  Electronic von Frey (paw pressure response): 46.37
ZFD rats; ZFD rats, 10 μg i.t., 2 hr
  Electronic von Frey (paw pressure response): 45.01
ZFD rats; ZFD rats, 10 μg i.t., 4 hr
  Electronic von Frey (paw pressure response): 32.33
ZFD rats; ZFD rats, 1 mg/kg s.c., 0 hr
  Electronic von Frey (paw pressure response): 28.36
ZFD rats; ZFD rats, 1 mg/kg s.c., 1 hr
  Electronic von Frey (paw pressure response): 32.99
ZFD rats; ZFD rats, 1 mg/kg s.c., 2 hr
  Electronic von Frey (paw pressure response): 27.35
ZFD rats; ZFD rats, 1 mg/kg s.c., 4 hr
  Electronic von Frey (paw pressure response): 24.67
ZFD rats; ZFD rats, 3 mg/kg s.c., 0 hr
  Electronic von Frey (paw pressure response): 33.72
ZFD rats; ZFD rats, 3 mg/kg s.c., 1 hr
  Electronic von Frey (paw pressure response): 54.21
ZFD rats; ZFD rats, 3 mg/kg s.c., 2 hr
  Electronic von Frey (paw pressure response): 58.41
ZFD rats; ZFD rats, 3 mg/kg s.c., 4 hr
  Electronic von Frey (paw pressure response): 30.01
ZFD rats; ZFD rats, 10 mg/kg s.c., 0 hr
  Electronic von Frey (paw pressure response): 22.69
ZFD rats; ZFD rats, 10 mg/kg s.c., 1 hr
  Electronic von Frey (paw pressure response): 56.02
ZFD rats; ZFD rats, 10 mg/kg s.c., 2 hr
  Electronic von Frey (paw pressure response): 58.15
ZFD rats; ZFD rats, 10 mg/kg s.c., 4 hr
  Electronic von Frey (paw pressure response): 39.32
